Laboratory results from US12674135B2, “Three-dimensional culture of immortalized skin cells on the superficial layer of which a stratum corneum is formed, method for producing said three-dimensional culture, and method for evaluating test substance using said three-dimensional culture” (National Institute of Advanced Industrial Science and …, priority 2020, dated 2026).

What was measured:
[1] = tested on: IL-8 promoter (red light-emitting luciferase) in three-dimensional culture of HaCaT
Description: (§1) The thus obtained HaCaT was used to obtain a three-dimensional culture by the same method as in Example 1. The three-dimensional culture was a three-dimensional culture in which a Cellbed was used as a plate-like substrate as in Example 1, to which a HaCaT culture layered product was adhered, and the superficial layer of the three-dimensional culture was the stratum corneum.
(§2) A cell culture insert (Falcon Culture Insert #353095) comprising a clear, colorless, PET membrane with a 0.4 μm pore size bottom for 24 wells was inserted into the wells of a 24-well plate for cell culture with black walls and a colorless bottom, the three-dimensional culture was placed in the bottom of the culture insert with the cells on top, and 0.8 mL of KGM-gold containing 0.2 mM luciferin potassium salt was placed in the well outside the culture insert. For sensitization evaluation, a test substance was loaded from the top of the three-dimensional culture inside the insert. […] As a solvent control, 30 μL of KGM medium was added from the top of the three-dimensional culture. Plastic paraffin film was sprinkled around this well plate and the luminescence was measured for 0 to 72 hours with a real-time luminescence monitoring system for cultured cells, Kronos HT (manufactured by ATTO Corporation). Measurements were taken every minute for 10 seconds for each color and continued for 0 to 72 hours. […]

[2] = tested on: IL-8 promoter (red light-emitting luciferase) in three-dimensional culture of HaCaT; conditions: 20 μM, 100 μM and 200 μM, loaded from bottom and top surfaces, 0 to 72 hours, FIG. 15
Description: as §1
A cell culture insert (Falcon Culture Insert #353095) comprising a clear, colorless, PET membrane with a 0.4 μm pore size bottom for 24 wells was inserted into the wells of a 24-well plate for cell culture with black walls and a colorless bottom, the three-dimensional culture obtained in Example 3 was placed in the bottom of the culture insert with the cells on top. […] 0.8 mL of this medium was placed on the outside of the culture insert, and then 30 μL was loaded from the top of the three-dimensional culture. […]
Plastic paraffin film was sprinkled around this well plate and the luminescence was measured for 0 to 72 hours with a real-time luminescence monitoring system for cultured cells, Kronos HT (manufactured by ATTO Corporation). The bioluminescence intensity of each luciferase was measured on these three-dimensional cultures as in Example 5.

[3] = tested on: IL-8 promoter (red light-emitting luciferase) in three-dimensional culture of HaCaT; test: Skin sensitization evaluation: test substance loaded from the top of the three-dimensional HaCaT culture, multicolor luciferase luminescence (IL-8 promoter red / UBC promoter green); conditions: range of from 200 µM to 2 mM in KGM medium, 30 μL loaded only from the top, up to 72 hours, FIG. 10
Description: as §1, §2

Structure (SMILES) | emission intensity, concentration dependence [1] | bioluminescence intensity ratio of red light-emitting luciferase (IL-8 promoter) to green light-emitting luciferase (ubiquitin C promoter) [2] | relative bioluminescence intensity of red light-emitting luciferase (IL-8 promoter) to green light-emitting luciferase (ubiquitin C promoter) [3]
CCCCN(CCCC)c1ccccc1 [DA, dibutylaniline] | concentration dependence was observed | – | –
Oc1ccc(O)cc1 [HQ, hydroquinone] | – | increased in a concentration-dependent manner | concentration-dependent increase
